# Read-outs that look alike come from different tables or passages of the source.
# Legend:
# [1] = Method: The margin of exposure versus NOEL is determined by estimating the total daily dose of the herbicide to a child in a swimming pool and determining the ratio of the NOEL to this. The total daily exposure may be estimated as follows. Oral exposure is estimated by assuming that the swimmer is in the water 3 hours per day, and that the swimmer ingests 50 milliliters of pool water per hour of swimming. It is also assumed that the herbicide will be present in the pool water at a concentration of 10 parts per million, equivalent to 10 milligrams per liter of pool water. The daily oral exposure is therefore estimated as the product of the swimming duration, the ingestion rate, and the concentration in the pool water. Dermal exposure is estimated by assuming the swimmer is in the water 3 hours per day, that the total body surface area, 8800 square centimeters, is immersed in the water, and that the herbicide permeates the skin at a rate, expressed in centimeters per hour, predicted by a model for skin permeation based on chemical structure, the Skinperm model, developed by W. F. ten Berge. A short description of the Skinperm model, can be accessed at: http://home.wxs.nl/˜wtberge/, which is incorporated herein by reference. The daily dermal exposure is then estimated as the product of the permeation rate, the concentration of the herbicide in the pool water (expressed in milligrams per cubic centimeter), the swimming duration, and the total body surface area. The total daily exposure is estimated as the sum of the daily oral and daily dermal exposure. The daily dose, expressed in milligrams per kilogram bodyweight per day, is then estimated as the total daily exposure divided by an assumed body weight of 22 kilograms.
# The margin of exposure versus RfD is determined by estimating the total daily dose of the herbicide to a child in a swimming pool, as described above, and determining the ratio of the RfD to this (i.e. margin of exposure/RfD).
# [2] = Margin of exposure versus NOEL (estimated total daily dose to a child in a swimming pool); settings: for Margin of Exposure vs NOEL (Target > 100): herbicides, Table A, ratio of NOEL to estimated daily dose, 10 ppm in pool water, child 22 kg, 3 hours per day; for Margin of Exposure vs NOEL: agricultural fungicides, Table B
# Method: The herbicide preferably has a margin of exposure versus no observed effect level (“NOEL”) value of greater than 10, more preferably greater than 50, especially greater than 80, and more especially greater than 99. The margin of exposure versus NOEL is determined by estimating the total daily dose of the herbicide to a child in a swimming pool and determining the ratio of the NOEL to this. The total daily exposure may be estimated as follows. Oral exposure is estimated by assuming that the swimmer is in the water 3 hours per day, and that the swimmer ingests 50 milliliters of pool water per hour of swimming. It is also assumed that the herbicide will be present in the pool water at a concentration of 10 parts per million, equivalent to 10 milligrams per liter of pool water. The daily oral exposure is therefore estimated as the product of the swimming duration, the ingestion rate, and the concentration in the pool water. Dermal exposure is estimated by assuming the swimmer is in the water 3 hours per day, that the total body surface area, 8800 square centimeters, is immersed in the water, and that the herbicide permeates the skin at a rate, expressed in centimeters per hour, predicted by a model for skin permeation based on chemical structure, the Skinperm model, developed by W. F. ten Berge. A short description of the Skinperm model, can be accessed at: http://home.wxs.nl/˜wtberge/, which is incorporated herein by reference. The daily dermal exposure is then estimated as the product of the permeation rate, the concentration of the herbicide in the pool water (expressed in milligrams per cubic centimeter), the swimming duration, and the total body surface area. The total daily exposure is estimated as the sum of the daily oral and daily dermal exposure. The daily dose, expressed in milligrams per kilogram bodyweight per day, is then estimated as the total daily exposure divided by an assumed body weight of 22 kilograms.
# mustard algae [3] = assay: Remedial laboratory study on algae, change in turbidity; settings: for Change in Turbidity at active agent (ppm) five days post treatment: 5 ppm: 5 ppm active ingredient; for Change in Turbidity at active agent (ppm) five days post treatment: 5 ppm / Change in Turbidity at active agent (ppm) five days post treatment: 10 ppm: initial absorbance 0.10; for Change in Turbidity at active agent (ppm) five days post treatment: 5 ppm / Change in Turbidity at active agent (ppm) five days post treatment: 10 ppm / comments (Remedial Algae Control) / water turbidity: Table 2; for Change in Turbidity at active agent (ppm) five days post treatment: 10 ppm: 10 ppm active ingredient; for water turbidity: indicating killing of the mustard algae; for Turbidity @ 5 ppm active ingredient (Change in Turbidity at five days post treatment) / Turbidity @ 10 ppm active ingredient (Change in Turbidity at five days post treatment): Table 4
# mustard algae [4] = assay: Preventative laboratory study on algae, visual growth score; settings: for Score @ ppm active agent: 0: 0 ppm; for Score @ ppm active agent: 0 / Score @ ppm active agent: 10 / Score @ ppm active agent: 15 / Score @ 10 ppm / Score @ 15 ppm active ingredient: visual score 0 to 4, 10 days; for Score @ ppm active agent: 0 / Score @ ppm active agent: 10 / Score @ ppm active agent: 15: 27° C.; for Score @ ppm active agent: 10 / Score @ 10 ppm: 10 ppm; for Score @ ppm active agent: 15 / Score @ 15 ppm active ingredient: 15 ppm; for Comments (Preventive Algae Control): Table 1; for Score @ 10 ppm / Score @ 15 ppm active ingredient: Table 3
# [5] = herbicides, Table A, 10 ppm in pool water, child 22 kg
compound,measurement,setting,value
"CCc1cnc(C2=NC(C)(C(C)C)C(=O)N2)c(C(=O)O)c1 (stereo not drawn) [Imazethapyr, 2-[4,5-dihydro-4-methyl-4-(1-methylethyl)-5-oxo-1H-imidazol-2-yl]-5ethyl-3-pyridinecarboxylic acid]",Margin of Exposure vs. RfD (Target > 1),"[1]; human, 3 hours per day, 10 ppm",3.3
same,Margin of Exposure vs NOEL (Target > 100),[2],3333
"COc1nc(C)nc(NC(=O)NS(=O)(=O)c2ccccc2Cl)n1 [Chlorsulfuron, 2-chloro-N-[[(4-methoxy-6-methyl-1,3,5-triazin-2-yl)amino]carbonyl]benzenesulfonamide]",Margin of Exposure vs. RfD (Target > 1),"[1]; human, 3 hours per day, 10 ppm",0.7
same,Margin of Exposure vs NOEL (Target > 100),[2],67
"COC(=O)c1ccccc1S(=O)(=O)NC(=O)Nc1nc(C)nc(OC)n1 [Metsulfuron-methyl, Methyl 2-[[[[(4-methoxy-6-methyl-1,3,5-triazin-2-yl)amino]carbonyl]amino]sulfonyl]benzoate]",Change in Turbidity at active agent (ppm) five days post treatment: 5 ppm,mustard algae [3],+0.09
same,Change in Turbidity at active agent (ppm) five days post treatment: 10 ppm,mustard algae [3],+0.06
same,comments (Remedial Algae Control),mustard algae [3],Algistatic. More
same,Margin of Exposure vs. RfD (Target > 1),"[1]; human, 3 hours per day, 10 ppm",3.3
same,Margin of Exposure vs NOEL (Target > 100),[2],333
CCc1cccc(C)c1N(C(=O)CCl)C(C)COC (stereo not drawn) [metolachlor],Change in Turbidity at active agent (ppm) five days post treatment: 5 ppm,mustard algae [3],+0.12
same,Change in Turbidity at active agent (ppm) five days post treatment: 10 ppm,mustard algae [3],+0.06
same,comments (Remedial Algae Control),mustard algae [3],Algistatic. More
same,Score @ ppm active agent: 0,mustard algae [4],1
same,Score @ ppm active agent: 10,mustard algae [4],1
same,Score @ ppm active agent: 15,mustard algae [4],1
same,Comments (Preventive Algae Control),mustard algae [4],very little growth
"CC(C)OC(=O)Nc1cccc(Cl)c1 [Chlopropham, Isopropyl 3-chlorocarbanilate; isopropyl 3-chlorophenylcarbamate]",Margin of Exposure vs. RfD (Target > 1),"[1]; human, 3 hours per day, 10 ppm",0.7
same,Margin of Exposure vs NOEL (Target > 100),[2],67
"CCCC(=NOCC)C1=C(O)CC(CC(C)SCC)CC1=O (stereo not drawn) [Sethoxydim, 2-[1-(ethoxyimino)butyl]-5-[2-(ethylthio)propyl]-3-hydroxy-2-cyclohexen-1-one]",Margin of Exposure vs. RfD (Target > 1),[1]; [5],12
same,Margin of Exposure vs NOEL (Target > 100),[2],119
"CCC(=O)Nc1ccc(Cl)c(Cl)c1 [Propanil, N-(3,4-dichlorophenyl)propanamide]",Change in Turbidity at active agent (ppm) five days post treatment: 5 ppm,mustard algae [3],−0.02
same,Change in Turbidity at active agent (ppm) five days post treatment: 10 ppm,mustard algae [3],−0.03
same,comments (Remedial Algae Control),mustard algae [3],algicidal activity
same,water turbidity,mustard algae [3],decreased significantly
same,Margin of Exposure vs. RfD (Target > 1),[1]; [5],0.1
same,Margin of Exposure vs NOEL (Target > 100),[2],67
Poly(oxyethylene(dimethylimino)-ethylene(dimethylimino)-ethylene dichloride) [Polyquat],Change in Turbidity at active agent (ppm) five days post treatment: 5 ppm,mustard algae [3],+0.29
same,Turbidity @ 5 ppm active ingredient (Change in Turbidity at five days post treatment),mustard algae [3],+0.29
same,Change in Turbidity at active agent (ppm) five days post treatment: 10 ppm,mustard algae [3],+0.28
same,Turbidity @ 10 ppm active ingredient (Change in Turbidity at five days post treatment),mustard algae [3],+0.28
same,Score @ ppm active agent: 0,mustard algae [4],2
same,Score @ ppm active agent: 10,mustard algae [4],2
same,Score @ 10 ppm,mustard algae [4],2
same,Score @ ppm active agent: 15,mustard algae [4],2
same,Score @ 15 ppm active ingredient,mustard algae [4],2
same,Comments (Preventive Algae Control),mustard algae [4],Bloom noticeable
"CCc1cccc(CC)c1N(COC)C(=O)CCl [Alachlor, 2-chloro-2′,6′-diethyl-N-(methoxymethyl) acetanilide]",Margin of Exposure vs. RfD (Target > 1),[1]; [5],0.1
same,Margin of Exposure vs NOEL (Target > 100),[2],13
"CN(C)c1nc(=O)n(C2CCCCC2)c(=O)n1C [Hexazinone, 3-cyclohexyl-6-(dimethylamino)-1-methyl-1,3,5-triazine-2,4(1H,3H)-dione]",Change in Turbidity at active agent (ppm) five days post treatment: 5 ppm,mustard algae [3],−0.03
same,Change in Turbidity at active agent (ppm) five days post treatment: 10 ppm,mustard algae [3],−0.03
same,comments (Remedial Algae Control),mustard algae [3],algicidal activity
same,water turbidity,mustard algae [3],decreased significantly
same,Margin of Exposure vs. RfD (Target > 1),"[1]; human, 3 hours per day, 10 ppm",0.6
same,Margin of Exposure vs NOEL (Target > 100),[2],63
"6-chloro-N-methyl-N′-(1-methylethyl)-1,3,5-triazine-2,4-diamine [Norflurazon]",Margin of Exposure vs. RfD (Target > 1),[1]; [5],0.3
same,Margin of Exposure vs NOEL (Target > 100),[2],20
"Cc1cc(C2CC2)nc(Nc2ccccc2)n1 [Cyprodinil, 4-cyclopropyl-6-methyl-N-phenyl-2-pyrimidinamine]",Margin of Exposure vs. RfD,"[1]; human, 3 hours per day, 10 ppm",0.5
same,Margin of Exposure vs NOEL,[2],50
"CCSC(=O)N1CCCCCC1 [Molinate, S-ethyl hexahydro-1H-azepine-1-carbothioate]",Margin of Exposure vs. RfD (Target > 1),[1]; [5],0.03
same,Margin of Exposure vs NOEL (Target > 100),[2],3
"COc1ccc(C(=CC(=O)N2CCOCC2)c2ccc(Cl)cc2)cc1OC [Dimethomorph, (E,Z)-4-[3-(4-chlorophenyl)-3-(3,4-dimethoxyphenyl)acryloyl]morpholine]",Margin of Exposure vs. RfD,"[1]; human, 3 hours per day, 10 ppm",0.8
same,Margin of Exposure vs NOEL,[2],88
"CC1(C)CON(Cc2ccccc2Cl)C1=O [Clomazone, 2-[(2-chlorophenyl)methyl]-4,4-dimethyl-3-isoxazolidinone]",Change in Turbidity at active agent (ppm) five days post treatment: 5 ppm,mustard algae [3],+0.10
same,Change in Turbidity at active agent (ppm) five days post treatment: 10 ppm,mustard algae [3],+0.10
same,Margin of Exposure vs. RfD (Target > 1),"[1]; human, 3 hours per day, 10 ppm",0.02
same,Margin of Exposure vs NOEL (Target > 100),[2],41
same,Score @ ppm active agent: 0,mustard algae [4],4
same,Score @ ppm active agent: 10,mustard algae [4],4
same,Score @ ppm active agent: 15,mustard algae [4],3
same,Comments (Preventive Algae Control),mustard algae [4],heavy growth
"C=CC1(C)OC(=O)N(c2cc(Cl)cc(Cl)c2)C1=O (stereo not drawn) [Vinclozolin, 3-(3,5-dichlorophenyl)-5-methyl-5-vinyl-1,3-oxazolidine-2,4-dione]",Margin of Exposure vs. RfD,"[1]; human, 3 hours per day, 10 ppm",0.3
same,Margin of Exposure vs NOEL,[2],33
"CSc1nc(NC(C)C)nc(NC(C)C)n1 [Prometryn, N,N′-bis(1-methylethyl)-6-(methylthio)-1,3,5-triazine-2,4-diamine]",Margin of Exposure vs. RfD (Target > 1),"[1]; human, 3 hours per day, 10 ppm",0.1
same,Margin of Exposure vs NOEL (Target > 100),[2],50
alkyl dimethyl benzylammonium chloride [ADBAC],Change in Turbidity at active agent (ppm) five days post treatment: 5 ppm,mustard algae [3],+0.13
same,Turbidity @ 5 ppm active ingredient (Change in Turbidity at five days post treatment),mustard algae [3],+0.13
same,Change in Turbidity at active agent (ppm) five days post treatment: 10 ppm,mustard algae [3],+0.03
same,Turbidity @ 10 ppm active ingredient (Change in Turbidity at five days post treatment),mustard algae [3],+0.03
same,control of the mustard algae,mustard algae [3]; at 5× and 10× the EPA allowable dose,no control
same,Score @ ppm active agent: 0,mustard algae [4],3
same,Score @ ppm active agent: 10,mustard algae [4],3
same,Score @ 10 ppm,mustard algae [4],3
same,Score @ ppm active agent: 15,mustard algae [4],0
same,Score @ 15 ppm active ingredient,mustard algae [4],0
"CC(C)NC(=O)N1CC(=O)N(c2cc(Cl)cc(Cl)c2)C1=O [Iprodione, 3-(3,5-dichlorophenyl)-N-(1-methylethyl)-2,4-dioxo-1-imidazolidinecarboxamide]",Margin of Exposure vs. RfD,"[1]; human, 3 hours per day, 10 ppm",0.3
same,Margin of Exposure vs NOEL,[2],81
"COC(=O)c1ccccc1CS(=O)(=O)NC(=O)Nc1nc(OC)cc(OC)n1 [Bensulfuron ME, Methyl 2-[[[[[(4,6-dimethoxypyrimidin-2-yl)amino]carbonyl]amino]sulfonyl]methyl]-benzoate]",Change in Turbidity at active agent (ppm) five days post treatment: 5 ppm,mustard algae [3],+0.01
same,Change in Turbidity at active agent (ppm) five days post treatment: 10 ppm,mustard algae [3],0.00
same,comments (Remedial Algae Control),mustard algae [3],algicidal activity
same,water turbidity,mustard algae [3],decreased significantly
same,Margin of Exposure vs. RfD (Target > 1),"[1]; human, 3 hours per day, 10 ppm",2.7
same,Margin of Exposure vs NOEL (Target > 100),[2],265
"CCNc1nc(NC(C)C)nc(SC)n1 [Ametryn, 2-ethylamino-4-isopropylamino-6-methylthio-s-triazine]",Margin of Exposure vs. RfD (Target > 1),"[1]; human, 3 hours per day, 10 ppm",0.02
same,Margin of Exposure vs NOEL (Target > 100),[2],25

# Source: US6710017B2, “Compositions and methods for controlling algae in recirculating water systems” (Avecia, Inc., priority 2000, dated 2004)
